Test system: dendritic cell-mediated T cell
Experiment: Inhibition of the activation of dendritic cell-mediated T cell by E. coli LPS ([3H]-methylthymidine)
Format: cell-based, mouse
Method: Antigen presenting cells activated by LPS activates T cells. It was tested whether dendritic cells blocked by sodium glycocholate can activate T cells when LPS activates dendritic cells. Cells were harvested from the bone marrow of Rag2 deficient male mouse. The harvested cells were plated at 4×10^3 cells/well in a 96-well plate and treated with 1.5 ng/ml of […] and 0.75 ng/ml of interleukin-4, and then incubated for 6 days to differentiate into dendritic cells. Sodium glycocholate was reacted with LPS for 1 hour at 37° C., and then mixed with the dendritic cells. The dendritic cells were stimulated for 14 hours at 37° C., and CD3+ and CD4+ T cells separated from female Marilyn mouse having H-Y antigen-specific T cell receptor (TCR), were incubated with the dendritic cells for 72 hours. [3H]-methylthymidine was added, at 1 μCi/well, to the 96-well plate and then incubated for 18 hours. Cells were harvested from the 96-well plated and then CPM (count per minute) was measured through a beta counter.

C[C@H](CCC(=O)NCC(=O)[O-])[C@H]1CC[C@H]2[C@@H]3[C@H](O)C[C@@H]4C[C@H](O)CC[C@]4(C)[C@H]3C[C@H](O)[C@]12C.[Na+] [sodium glycocholate]
inhibition of proliferation of dendritic cell-mediated T cell (0.5 mg/ml): 104.9±3.2%
inhibition of proliferation of dendritic cell-mediated T cell (1 mg/ml): 105.1±3.2%
